Measurements reported in patent publication US11297838B2, “Pesticidal compositions and methods” (CORTEVA AGRISCIENCE LLC, priority 2018, dated 2022).
Where two headings read alike, the source gives them in different places.

Legend:
[1] = system: Cabbage Looper (Trichloplusia ni, TRIPNI); test: Insecticidal test for cabbage looper (CL), 128-well diet tray assay; format: in vivo; settings: Trichoplusia ni, 168 h, read-out: CL rating, % Control (or Mortality)
Description: Insecticidal Test for Cabbage Looper (Trichloplusia ni, TRIPNI) (“CL”)
Bioassays on cabbage looper (CL; Trichloplusia ni: Lepidoptera) are conducted using a 128-well diet tray assay. One to five second instar CL larvae are placed in each well (3 mL) of the diet tray that had been previously filled with 1 mL of artificial diet to which 50 μg/cm^2 of the test compound (dissolved in 50 μL of 90:10 acetone-water mixture) had been applied (to each of eight wells) and then allowed to dry. Trays are covered with a clear self-adhesive cover, vented to allow gas exchange, and held at 25° C., 14:10 light-dark for five to seven days. Percent mortality is recorded for the larvae in each well; activity in the eight wells is then averaged. In the reporting of the results, the “BAW & CL Rating Table” was used.

[2] = system: Beet Armyworm (Spodoptera exigua, LAPHEG); test: Insecticidal test for beet armyworm (BAW), 128-well diet tray assay; format: in vivo; settings: 168 h, read-out: BAW rating, % Control (or Mortality)
Description: Insecticidal Test for Beet Armyworm (Spodoptera exigua, LAPHEG) (“BAW”)
Bioassays on beet armyworm (BAW; Spodoptera exigua: Lepidoptera) are conducted using a 128-well diet tray assay. One to five second instar BAW larvae are placed in each well (3 mL) of the diet tray that had been previously filled with 1 mL of artificial diet to which 50 μg/cm^2 of the test compound (dissolved in 50 μL of 90:10 acetone-water mixture) had been applied (to each of eight wells) and then allowed to dry. Trays are covered with a clear self-adhesive cover, vented to allow gas exchange, and held at 25° C., 14:10 light-dark for five to seven days. Percent mortality is recorded for the larvae in each well; activity in the eight wells is then averaged. In the reporting of the results, the “BAW & CL Rating Table” was used.

[3] = 50 μg/cm^2 on artificial diet, second instar larvae, five to seven days, 25° C.

Compound	mortality at 50 µg/cm2 [1, 3] [%]	mortality at 50 µg/cm2 [2, 3] [%]	mortality at 50 µg/cm2 [1] [%]	mortality at 50 µg/cm2 [2] [%]
Cc1ccc(C(C)C)c(N2C(=O)CS/C2=N\C(=O)OCCc2ccc(-c3ncn(-c4ccc(OC(F)(F)F)cc4)n3)cc2)c1 [A1, 4-(1-(4-(trifluoromethoxy)phenyl)-1H-1,2,4-triazol-3-yl)phenethyl (Z)-(3-(2-isopropyl-5-methylphenyl)-4-oxothiazolidin-2-ylidene)carbamate]	50 to 100	50 to 100		
Cc1ccc(C(C)C)c(N2C(=O)CS/C2=N\C(=O)Oc2ccc(-c3ncn(-c4ccc(OC(F)(F)F)cc4)n3)cc2)c1 [A3, 4-(1-(4-(Trifluoromethoxy)phenyl)-1H-1,2,4-triazol-3-yl)phenyl (Z)-(3-(2-isopropyl-5-methylphenyl)-4-oxothiazolidin-2-ylidene)carbamate]			0	0
Cc1ccc(C(C)C)c(N2C(=O)CS/C2=N\C(=O)OCC(F)(F)c2ccc(-c3ncn(-c4ccc(OC(F)(F)F)cc4)n3)cc2)c1 [A4, 2,2-difluoro-2-(4-(1-(4-(trifluoromethoxy)phenyl)-1H-1,2,4-triazol-3-yl)phenyl)ethyl (Z)-(3-(2-isopropyl-5-methylphenyl)-4-oxothiazolidin-2-ylidene)carbamate]	50 to 100	50 to 100		
Cc1ccc(C(C)C)c(N2C(=O)CS/C2=N\C(=O)OCC(F)c2ccc(-c3ncn(-c4ccc(OC(F)(F)F)cc4)n3)cc2)c1 (stereo not shown) [A20, 2-fluoro-2-(4-(1-(4-(trifluoromethoxy)phenyl)-1H-1,2,4-triazol-3-yl)phenyl)ethyl (Z)-(3-(2-isopropyl-5-methylphenyl)-4-oxothiazolidin-2-ylidene)carbamate]	50 to 100	50 to 100		
Cc1ccc(OCC(F)(F)F)c(N2C(=O)CS/C2=N\C(=O)OCC(F)c2ccc(-c3ncn(-c4ccc(OC(F)(F)F)cc4)n3)cc2)c1 (stereo not shown) [A21, 2-Fluoro-2-(4-(1-(4-(trifluoromethoxy)phenyl)-1H-1,2,4-triazol-3-yl)phenyl)ethyl (Z)-(3-(5-methyl-2-(2,2,2-trifluoroethoxy)phenyl)-4-oxothiazolidin-2-ylidene)carbamate]	50 to 100	50 to 100		
O=C(/N=C1\SCC(=O)N1c1cc(Cl)ccc1OCC(F)(F)F)OCC(F)c1ccc(-c2ncn(-c3ccc(OC(F)(F)F)cc3)n2)cc1 (stereo not shown) [A22, 2-Fluoro-2-(4-(1-(4-(trifluoromethoxy)phenyl)-1H-1,2,4-triazol-3-yl)phenyl)ethyl (Z)-(3-(5-chloro-2-(2,2,2-trifluoroethoxy)phenyl)-4-oxothiazolidin-2-ylidene)carbamate]	50 to 100	50 to 100		
CC(C)c1ccc(Cl)cc1N1C(=O)CS/C1=N\C(=O)OCC(F)c1ccc(-c2ncn(-c3ccc(OC(F)(F)F)cc3)n2)cc1 (stereo not shown) [A23, 2-Fluoro-2-(4-(1-(4-(trifluoromethoxy)phenyl)-1H-1,2,4-triazol-3-yl)phenyl)ethyl (Z)-(3-(5-chloro-2-isopropylphenyl)-4-oxothiazolidin-2-ylidene)carbamate]	50 to 100	50 to 100		
CC(C)c1ccccc1N1C(=O)CS/C1=N\C(=O)OCC(F)c1ccc(-c2ncn(-c3ccc(OC(F)(F)C(F)(F)F)cc3)n2)cc1 (stereo not shown) [A24, 2-Fluoro-2-(4-(1-(4-(perfluoroethoxy)phenyl)-1H-1,2,4-triazol-3-yl)phenyl)ethyl (Z)-(3-(2-isopropylphenyl)-4-oxothiazolidin-2-ylidene)carbamate]	50 to 100	50 to 100		
CC(C)c1ccc(Cl)cc1N1C(=O)CS/C1=N\C(=O)OCC(F)c1ccc(-c2ncn(-c3ccc(OC(F)(F)C(F)(F)F)cc3)n2)cc1 (stereo not shown) [A25, 2-Fluoro-2-(4-(1-(4-(perfluoroethoxy)phenyl)-1H-1,2,4-triazol-3-yl)phenyl)ethyl (Z)-(3-(5-chloro-2-isopropylphenyl)-4-oxothiazolidin-2-ylidene)carbamate]	0 to 50	50 to 100		
COCc1ccccc1N1C(=O)CS/C1=N\C(=O)OCCc1ccc(-c2ncn(-c3ccc(OC(F)(F)F)cc3)n2)cc1 [A27, 4-(1-(4-(trifluoromethoxy)phenyl)-1H-1,2,4-triazol-3-yl)phenethyl (Z)-(3-(2-(methoxymethyl)phenyl)-4-oxothiazolidin-2-ylidene)carbamate]	50 to 100	50 to 100		
CCC(C)c1ccc(OC)cc1N1C(=O)CS/C1=N\C(=O)OCCc1ccc(-c2ncn(-c3ccc(OC(F)(F)F)cc3)n2)cc1 (stereo not shown) [A28, 4-(1-(4-(Trifluoromethoxy)phenyl)-1H-1,2,4-triazol-3-yl)phenethyl (Z)-(3-(2-(sec-butyl)-5-methoxyphenyl)-4-oxothiazolidin-2-ylidene)carbamate]	50 to 100	50 to 100		
O=C(/N=C1\SCC(=O)N1c1cc(Cl)ccc1OC(F)(F)F)OCCc1ccc(-c2ncn(-c3ccc(OC(F)(F)F)cc3)n2)cc1 [A29, 4-(1-(4-(Trifluoromethoxy)phenyl)-1H-1,2,4-triazol-3-yl)phenethyl (Z)-(3-(5-chloro-2-(trifluoromethoxy)phenyl)-4-oxothiazolidin-2-ylidene)carbamate]	50 to 100	50 to 100		
O=C(/N=C1\SCC(=O)N1c1cc(Cl)ccc1OCC(F)(F)F)OCCc1ccc(-c2ncn(-c3ccc(OC(F)(F)F)cc3)n2)cc1 [A30, 4-(1-(4-(Trifluoromethoxy)phenyl)-1H-1,2,4-triazol-3-yl)phenethyl (Z)-(3-(5-chloro-2-(2,2,2-trifluoroethoxy)phenyl)-4-oxothiazolidin-2-ylidene)carbamate]	50 to 100	50 to 100		
Cc1ccc(OCC(F)(F)F)c(N2C(=O)CS/C2=N\C(=O)OCCc2ccc(-c3ncn(-c4ccc(OC(F)(F)F)cc4)n3)cc2)c1 [A31, 4-(1-(4-(Trifluoromethoxy)phenyl)-1H-1,2,4-triazol-3-yl)phenethyl (Z)-(3-(5-methyl-2-(2,2,2-trifluoroethoxy)phenyl)-4-oxothiazolidin-2-ylidene)carbamate]	50 to 100	50 to 100		
CCc1cccc(C)c1N1C(=O)CS/C1=N\C(=O)OCCc1ccc(-c2ncn(-c3ccc(OC(F)(F)F)cc3)n2)cc1 [A32, 4-(1-(4-(Trifluoromethoxy)phenyl)-1H-1,2,4-triazol-3-yl)phenethyl (Z)-(3-(2-ethyl-6-methylphenyl)-4-oxothiazolidin-2-ylidene)carbamate]	50 to 100	0		
O=C(/N=C1\SCC(=O)N1c1cccc2c1CCCC2)OCCc1ccc(-c2ncn(-c3ccc(OC(F)(F)F)cc3)n2)cc1 [A33, 4-(1-(4-(Trifluoromethoxy)phenyl)-1H-1,2,4-triazol-3-yl)phenethyl (Z)-(4-oxo-3-(5,6,7,8-tetrahydronaphthalen-1-yl)thiazolidin-2-ylidene)carbamate]	50 to 100	0		
CC(C)c1ccccc1N1C(=O)CS/C1=N\C(=O)OCC(F)c1ccc(-c2ncn(-c3ccc(OC(F)(F)F)cc3)n2)cc1 (stereo not shown) [A34, 2-Fluoro-2-(4-(1-(4-(trifluoromethoxy)phenyl)-1H-1,2,4-triazol-3-yl)phenyl)ethyl (Z)-(3-(2-isopropylphenyl)-4-oxothiazolidin-2-ylidene)carbamate]	50 to 100	50 to 100		
